Key:
[1] = Inhibition of C-terminal 6His-tagged SARS-CoV 3C-like protease expressed in Escherichia coli BL21 (DE3) CodonPlus-RIL using 12-mer fluorogenic peptide Dabcyl-KNSTLQSGLRKE-Edans as substrate incubated for 60 mins by fluorescence method; parameters: species or system Severe acute respiratory syndrome-related coronavirus
[2] = Inhibition of C-terminal 6His-tagged SARS-CoV papain-like protease expressed in Escherichia coli BL21 (DE3) CodonPlus-RIL using Arg-Leu-Arg-Gly-Gly-AMC as substrate by fluorescence method; parameters: species or system Severe acute respiratory syndrome-related coronavirus
[3] = Inhibition of SARS-CoV 3C-like protease expressed in African green monkey Vero cells using SAVLQSGFRK as substrate by dual luciferase reporter assay; assay type: cell-based, Severe acute respiratory syndrome-related coronavirus
[4] = Inhibition of SARS-CoV 3C-like protease expressed in Escherichia coli BL21 using Dabcyl-KTSAVLQSGFRKME-Edans fluorogenic peptide as substrate by fluorometric assay; parameters: species or system Severe acute respiratory syndrome-related coronavirus
[5] = Inhibition of MERS-CoV 3C-like protease expressed in Escherichia coli BL21 using Dabcyl-KTSAVLQSGFRKME-Edans fluorogenic peptide as substrate by fluorometric assay; parameters: species or system Middle East respiratory syndrome-related coronavirus
[6] = Cytotoxicity against African green monkey Vero E6 cells by CCK8 assay; assay type: cell-based, Vero C1008; settings: chlorocebus sabaeus
[7] = Inhibition of SARS-CoV2 3C-like protease expressed in Escherichia coli BL21 (DE3) cells using Mca-AVLQSGFR-K(Dnp)K as substrate by fluorescence method; parameters: species or system Severe acute respiratory syndrome coronavirus 2
[8] = Inhibition of SARS-CoV2 3C-like protease expressed in Escherichia coli BL21-Gold (DE3) cells using Dabcyl-KTSAVLQSGFRKM-E(Edans)-NH2 as substrate by FRET-based cleavage assay; parameters: species or system Severe acute respiratory syndrome coronavirus 2

## O=C(/C=C/CCc1ccc(O)c(O)c1)CCc1ccc(O)c(O)c1 [DEHYDROHIRSUTANONOL]
[1]
  IC50: 36.2 µM
[2]
  IC50: 4.1 µM

## COc1ccc(C(=O)/C=C/c2ccc(O)cc2)c(O)c1CC(O)C(C)=O (stereo not given)
[3]
  IC50: 7.1 µM

## O=C[C@H](CC1CCNC1=O)NC(=O)[C@@H](Cc1ccccc1)NC(=O)/C=C/c1ccc(Cl)cc1F (stereo not given in full)
[4]
  IC50: 0.2 µM
[5]
  IC50: 1.17 µM

## NC(=O)c1nc(F)c[nH]c1=O
[6]
  CC50: > 400 µM

## NC(=O)c1ncn([C@@H]2O[C@H](CO)[C@@H](O)[C@H]2O)n1 [RIBAVIRIN]
[6]
  CC50: > 400 µM

## Cn1sc(=O)n(Cc2ccccc2)c1=O
[7]
  IC50: 2.5 µM

## Nc1nc2c(ncn2CCC(CO)CO)c(=O)[nH]1 [PENCICLOVIR]
[6]
  CC50: > 400 µM

## CC(C)(C)CC(=O)Nc1cccc([C@@H](CC2CC2)C(=O)N[C@@H](CC2CCNC2=O)C(=O)C(=O)NCc2ccccc2)c1O (stereo not given in full)
[8]
  IC50: 0.67 µM
